Laboratory results reported in ChEMBL document CHEMBL1201862, “PubChem BioAssay data set” (2004).
Activity calls are given as the source filed them.

What was measured:
[1] = molecular target: Epstein-Barr nuclear antigen 1 (Epstein-Barr virus (strain B95-8) (HHV-4) (Human herpesvirus 4), UniProt P03211); assay: inhibition of EBV nuclear antigen 1 DNA binding – biochemical, fluorescence polarization, 1536-well, dose response (AID 2381); design: species or system human gammaherpesvirus 4;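 note: fluorescence polarization of a Cy5 DNA probe bound by EBNA-1 protein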
Chain of Epstein-Barr nuclear antigen 1 (P03211 whole entry): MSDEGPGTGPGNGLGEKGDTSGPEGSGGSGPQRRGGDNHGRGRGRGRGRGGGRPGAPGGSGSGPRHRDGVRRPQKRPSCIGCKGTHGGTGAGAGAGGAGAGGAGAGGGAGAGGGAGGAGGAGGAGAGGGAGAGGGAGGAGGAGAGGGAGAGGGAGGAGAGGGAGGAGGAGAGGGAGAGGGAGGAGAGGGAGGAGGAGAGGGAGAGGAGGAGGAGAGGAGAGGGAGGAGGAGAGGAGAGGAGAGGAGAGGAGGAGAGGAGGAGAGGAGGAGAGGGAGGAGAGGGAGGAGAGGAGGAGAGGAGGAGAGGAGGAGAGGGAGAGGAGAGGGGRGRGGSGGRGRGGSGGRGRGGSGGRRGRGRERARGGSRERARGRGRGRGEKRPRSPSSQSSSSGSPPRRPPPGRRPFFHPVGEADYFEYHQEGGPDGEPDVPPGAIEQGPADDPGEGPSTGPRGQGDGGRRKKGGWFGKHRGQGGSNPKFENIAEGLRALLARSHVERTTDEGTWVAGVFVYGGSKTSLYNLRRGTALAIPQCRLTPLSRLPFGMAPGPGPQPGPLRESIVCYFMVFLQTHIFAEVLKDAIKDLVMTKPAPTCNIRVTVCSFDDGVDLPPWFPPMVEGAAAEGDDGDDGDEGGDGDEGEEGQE

[2] = molecular target: Lytic switch protein BZLF1 (Epstein-Barr virus (strain B95-8) (HHV-4) (Human herpesvirus 4), UniProt P03206); assay: inhibition of BZLF1 ZTA DNA binding – biochemical, fluorescence polarization, Epstein-Barr virus, 1536-well, counter-screen for EBNA-1 inhibitor project, dose response (AID 2377); design: species or system human gammaherpesvirus 4;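 note: fluorescence polarization of Cy5-labelled ZRE DNA probe bound by purified Zta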
Chain of Lytic switch protein BZLF1 (P03206 whole entry): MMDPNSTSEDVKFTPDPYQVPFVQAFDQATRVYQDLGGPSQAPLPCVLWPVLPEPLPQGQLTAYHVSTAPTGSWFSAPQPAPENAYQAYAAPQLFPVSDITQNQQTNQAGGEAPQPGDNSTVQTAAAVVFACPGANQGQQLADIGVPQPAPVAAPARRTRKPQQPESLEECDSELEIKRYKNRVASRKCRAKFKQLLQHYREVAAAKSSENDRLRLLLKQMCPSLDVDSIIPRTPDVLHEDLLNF

NADPH oxidase 1 = NADPH oxidase 1 (Homo sapiens, UniProt Q9Y5S8); type: functional, cell-based;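 note: Cell-based assay with luminescence read-out, IC50 derived from inhibitor dose-response curves; intracellular ROS from endogenous NOX1 in intact HT29 colon cancer cells; potency of inhibitors that lower the ROS luminescence signal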
Chain of NADPH oxidase 1 (Q9Y5S8 whole entry): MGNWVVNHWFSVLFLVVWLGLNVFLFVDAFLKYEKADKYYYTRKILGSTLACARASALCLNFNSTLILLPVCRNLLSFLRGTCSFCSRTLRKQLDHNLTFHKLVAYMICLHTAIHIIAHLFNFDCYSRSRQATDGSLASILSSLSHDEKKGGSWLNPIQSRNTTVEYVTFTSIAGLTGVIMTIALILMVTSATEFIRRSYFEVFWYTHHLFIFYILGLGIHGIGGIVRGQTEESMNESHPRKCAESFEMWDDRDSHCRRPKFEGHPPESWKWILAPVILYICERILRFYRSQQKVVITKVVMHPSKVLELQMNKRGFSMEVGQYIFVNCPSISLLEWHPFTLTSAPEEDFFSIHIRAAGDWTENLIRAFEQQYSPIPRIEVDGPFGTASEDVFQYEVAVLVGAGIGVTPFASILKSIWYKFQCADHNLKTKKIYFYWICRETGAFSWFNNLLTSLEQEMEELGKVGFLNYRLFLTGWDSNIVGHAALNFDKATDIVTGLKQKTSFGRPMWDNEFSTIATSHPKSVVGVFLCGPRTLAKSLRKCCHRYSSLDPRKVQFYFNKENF

[3] = molecular target: T1, Rac GTPase-activating protein 1 (Homo sapiens, UniProt Q9H0H5); assay: blockers of MgcRacGAP-driven Rac1 GTP hydrolysis – biochemical, ADP Hunter fluorescence, primary and confirmatory, confirmation (AID 624330); type: functional
T1 sequence (Q9H0H5 whole entry): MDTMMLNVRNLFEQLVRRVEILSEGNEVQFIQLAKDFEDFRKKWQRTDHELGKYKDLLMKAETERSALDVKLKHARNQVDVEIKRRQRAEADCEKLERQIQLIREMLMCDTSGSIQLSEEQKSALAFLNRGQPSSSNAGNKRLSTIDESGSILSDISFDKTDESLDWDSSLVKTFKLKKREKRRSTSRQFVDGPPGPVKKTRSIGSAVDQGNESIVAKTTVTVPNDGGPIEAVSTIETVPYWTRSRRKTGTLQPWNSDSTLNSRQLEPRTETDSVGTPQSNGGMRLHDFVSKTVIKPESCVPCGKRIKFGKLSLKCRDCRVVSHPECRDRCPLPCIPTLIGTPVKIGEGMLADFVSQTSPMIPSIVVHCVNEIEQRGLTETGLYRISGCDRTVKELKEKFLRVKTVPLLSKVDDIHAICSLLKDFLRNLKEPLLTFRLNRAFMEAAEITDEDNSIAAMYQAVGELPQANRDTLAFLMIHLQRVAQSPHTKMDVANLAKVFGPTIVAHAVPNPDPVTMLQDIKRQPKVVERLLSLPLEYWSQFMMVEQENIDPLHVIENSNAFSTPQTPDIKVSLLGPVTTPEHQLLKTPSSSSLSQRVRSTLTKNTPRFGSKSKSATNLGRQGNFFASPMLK

Protein Tat = Protein Tat (Human immunodeficiency virus type 1 group M subtype B (isolate HXB2)(HIV-1), UniProt P04608); type: functional;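 note: tat binding to TAR RNA read out by fluorescence polarization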
Chain of Protein Tat (P04608 whole entry): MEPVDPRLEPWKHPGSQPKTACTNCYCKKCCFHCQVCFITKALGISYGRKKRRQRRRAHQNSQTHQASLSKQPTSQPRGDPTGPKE

[4] = molecular target: Peroxisome proliferator-activated receptor gamma/Nuclear receptor corepressor 2 (Homo sapiens, UniProt P37231+Q9Y618); assay: Counterscreen for NR2E3 inverse agonists: TR-FRET-based biochemical high throughput dose response assay to identify inverse agonists of the interaction between peroxisome proliferator-activated receptor gamma (PPARg) and nuclear receptor co-repressor 2 (NCOR2).; type: functional
Chain of Peroxisome proliferator-activated receptor gamma/Nuclear receptor corepressor 2 (P37231 whole entry): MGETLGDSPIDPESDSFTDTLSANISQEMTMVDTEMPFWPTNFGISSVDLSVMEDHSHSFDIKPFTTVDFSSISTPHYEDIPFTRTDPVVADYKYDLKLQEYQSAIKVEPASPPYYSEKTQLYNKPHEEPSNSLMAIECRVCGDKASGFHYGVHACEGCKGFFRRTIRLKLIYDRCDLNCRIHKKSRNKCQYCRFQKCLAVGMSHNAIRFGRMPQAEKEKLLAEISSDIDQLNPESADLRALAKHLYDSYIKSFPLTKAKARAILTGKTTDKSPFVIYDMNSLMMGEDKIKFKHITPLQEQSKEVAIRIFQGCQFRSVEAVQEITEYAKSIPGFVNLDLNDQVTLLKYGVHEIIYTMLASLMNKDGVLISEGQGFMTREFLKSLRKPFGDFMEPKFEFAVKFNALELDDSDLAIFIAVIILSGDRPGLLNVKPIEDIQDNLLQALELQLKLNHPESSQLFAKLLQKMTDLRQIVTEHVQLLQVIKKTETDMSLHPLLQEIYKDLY
Chain of Peroxisome proliferator-activated receptor gamma/Nuclear receptor corepressor 2 (Q9Y618 whole entry): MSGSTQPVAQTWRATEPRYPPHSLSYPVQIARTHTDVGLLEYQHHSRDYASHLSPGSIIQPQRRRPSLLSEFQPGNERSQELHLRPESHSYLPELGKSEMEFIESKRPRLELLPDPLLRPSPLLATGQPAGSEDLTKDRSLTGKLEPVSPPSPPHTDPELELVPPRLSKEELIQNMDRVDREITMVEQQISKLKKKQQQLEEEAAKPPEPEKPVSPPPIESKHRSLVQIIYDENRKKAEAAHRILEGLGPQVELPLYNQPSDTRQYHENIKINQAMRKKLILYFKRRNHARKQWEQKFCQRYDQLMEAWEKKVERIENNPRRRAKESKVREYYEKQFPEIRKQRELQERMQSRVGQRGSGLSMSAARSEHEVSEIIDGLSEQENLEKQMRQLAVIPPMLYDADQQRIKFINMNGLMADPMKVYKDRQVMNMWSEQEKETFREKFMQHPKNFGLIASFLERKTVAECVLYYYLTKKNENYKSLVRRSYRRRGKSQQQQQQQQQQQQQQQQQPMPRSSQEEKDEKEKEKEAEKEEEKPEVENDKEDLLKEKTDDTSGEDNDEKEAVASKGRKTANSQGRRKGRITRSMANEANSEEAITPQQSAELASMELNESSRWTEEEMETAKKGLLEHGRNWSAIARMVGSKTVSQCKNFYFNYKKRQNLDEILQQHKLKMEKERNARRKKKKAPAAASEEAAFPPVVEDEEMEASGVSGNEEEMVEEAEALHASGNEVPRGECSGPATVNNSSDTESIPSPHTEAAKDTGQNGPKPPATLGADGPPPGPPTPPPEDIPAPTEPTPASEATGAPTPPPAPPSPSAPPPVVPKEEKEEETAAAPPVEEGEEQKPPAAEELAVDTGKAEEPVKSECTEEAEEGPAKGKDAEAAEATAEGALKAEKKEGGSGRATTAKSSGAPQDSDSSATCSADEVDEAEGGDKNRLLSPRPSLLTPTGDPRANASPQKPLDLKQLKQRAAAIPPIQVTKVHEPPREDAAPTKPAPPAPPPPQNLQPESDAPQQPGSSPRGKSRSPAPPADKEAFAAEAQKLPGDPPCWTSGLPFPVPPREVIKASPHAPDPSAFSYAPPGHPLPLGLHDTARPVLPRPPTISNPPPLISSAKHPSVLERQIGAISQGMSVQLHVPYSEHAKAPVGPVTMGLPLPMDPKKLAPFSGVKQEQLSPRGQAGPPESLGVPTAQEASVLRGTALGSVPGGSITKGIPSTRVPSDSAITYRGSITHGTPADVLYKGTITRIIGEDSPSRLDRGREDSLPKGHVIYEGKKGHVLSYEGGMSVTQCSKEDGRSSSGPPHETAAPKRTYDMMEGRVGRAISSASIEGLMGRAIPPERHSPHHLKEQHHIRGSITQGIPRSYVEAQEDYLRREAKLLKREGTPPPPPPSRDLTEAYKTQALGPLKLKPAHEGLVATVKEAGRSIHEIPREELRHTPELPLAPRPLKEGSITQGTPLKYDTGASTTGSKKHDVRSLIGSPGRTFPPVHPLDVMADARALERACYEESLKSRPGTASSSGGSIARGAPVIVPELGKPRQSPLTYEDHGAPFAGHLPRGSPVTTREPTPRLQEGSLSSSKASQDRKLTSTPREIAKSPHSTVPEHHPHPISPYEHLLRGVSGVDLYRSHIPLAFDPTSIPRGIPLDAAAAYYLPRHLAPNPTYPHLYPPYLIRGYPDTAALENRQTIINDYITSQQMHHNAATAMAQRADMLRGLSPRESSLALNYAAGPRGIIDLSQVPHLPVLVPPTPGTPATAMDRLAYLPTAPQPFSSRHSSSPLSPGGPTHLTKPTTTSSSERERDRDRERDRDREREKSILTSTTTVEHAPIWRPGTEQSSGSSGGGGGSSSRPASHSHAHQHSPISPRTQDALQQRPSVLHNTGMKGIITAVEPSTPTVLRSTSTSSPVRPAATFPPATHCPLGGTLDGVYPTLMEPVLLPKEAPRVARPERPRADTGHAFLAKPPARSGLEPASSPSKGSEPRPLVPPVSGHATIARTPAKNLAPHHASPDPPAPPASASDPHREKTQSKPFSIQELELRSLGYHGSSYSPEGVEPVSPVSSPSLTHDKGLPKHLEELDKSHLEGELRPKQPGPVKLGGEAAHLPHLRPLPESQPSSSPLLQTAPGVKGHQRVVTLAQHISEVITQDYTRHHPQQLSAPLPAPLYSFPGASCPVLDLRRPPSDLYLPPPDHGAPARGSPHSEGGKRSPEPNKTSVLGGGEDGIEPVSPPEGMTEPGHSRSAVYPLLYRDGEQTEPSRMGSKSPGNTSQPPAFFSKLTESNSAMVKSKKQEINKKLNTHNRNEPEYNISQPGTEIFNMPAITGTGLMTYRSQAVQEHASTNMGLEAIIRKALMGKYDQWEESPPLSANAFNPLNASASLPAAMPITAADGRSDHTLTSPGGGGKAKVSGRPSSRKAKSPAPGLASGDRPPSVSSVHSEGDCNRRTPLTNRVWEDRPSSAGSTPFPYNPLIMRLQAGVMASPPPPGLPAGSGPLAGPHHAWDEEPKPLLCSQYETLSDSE

[5] = molecular target: Photoreceptor-specific nuclear receptor (Homo sapiens, UniProt Q9Y5X4); assay: ligands suppressing NR2E3 nuclear receptor activity – biochemical, TR-FRET, dose response (AID 463256); type: functional
Chain of Photoreceptor-specific nuclear receptor (Q9Y5X4 whole entry): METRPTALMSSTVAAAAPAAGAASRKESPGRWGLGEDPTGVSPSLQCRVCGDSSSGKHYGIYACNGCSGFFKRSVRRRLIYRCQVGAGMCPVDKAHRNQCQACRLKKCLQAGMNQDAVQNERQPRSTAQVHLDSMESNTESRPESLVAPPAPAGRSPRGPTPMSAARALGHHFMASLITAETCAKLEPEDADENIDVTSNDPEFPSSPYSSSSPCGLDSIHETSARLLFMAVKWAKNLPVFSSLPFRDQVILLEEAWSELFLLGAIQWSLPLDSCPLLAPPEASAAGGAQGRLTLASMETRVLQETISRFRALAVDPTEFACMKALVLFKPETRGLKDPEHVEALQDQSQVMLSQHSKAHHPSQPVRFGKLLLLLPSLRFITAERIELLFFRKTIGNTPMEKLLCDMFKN

[6] = molecular target: Protein-tyrosine kinase 2-beta (Homo sapiens, UniProt Q14289);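 note: potency of inhibitors of PYK2 kinase phosphorylation of poly-GT substrate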
[7] = viability of HCT116 lacking mutant beta-catenin – cell-based, human colon tumor, dose response (AID 1045); type: functional;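 note: HCT116 colon tumor cells with beta catenin knocked out; cells exposed to compound for 60 hours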
[8] = viability of PTEN-deleted HCT116 cells – cell-based, HCT116 PTEN knockout, dose response (AID 1047); type: functional;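 note: HCT116 colon tumor cells with PTEN knocked out; cells exposed to compound for 60 hours before readout; potency for loss of cell viability measured by luminescence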
[9] = Trypanosoma cruzi growth suppression in host cells – NIH3T3 host cells, beta-gal luminescence, confirmation (AID 2044); type: functional, cell-based;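 note: intracellular parasites grown in NIH/3T3 mouse fibroblasts as host cells; luminescent beta-galactosidase reporter signal from transgenic T. cruzi replicating inside host cells; inhibitors lower the luminescence signal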
[10] = NIH3T3 cell viability loss – ATP luminescence, mouse fibroblasts, counter-screen, dose response (AID 2010); type: functional, cell-based;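 note: cells exposed to compound for about 90 hours before reading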
[11] = molecular target: Bifunctional protein GlmU (Mycobacterium tuberculosis, UniProt P9WMN3); assay: Inhibitors of Mycobacterial Glucosamine-1-phosphate acetyl transferase (GlmU). Secondary screen.; design: species or system Mycobacterium tuberculosis H37Rv
[12] = Luminescence Cell-Based Dose Response to Identify Activators of Luciferase Translation or Activity in H4-C Neuroglioblastoma Cells. [Related pubchem assays: 1829 (Project Summary), 1814 (Primary HTS)]; type: functional
[13] = Luminescence Cell-Based Dose Confirmation to Identify Activators of 5'UTR Stem-Loop Driven Alpha-Synuclein mRNA Translation in H4 Neuroglioblastoma Cells. [Related pubchem assays: 1829 (Project Summary), 1814 (Primary HTS)]; type: functional
[14] = Luminescence Cell-Based Dose Response HTS to Identify Activators of Luciferase Translation or Activity in H4 […] Cells. [Related pubchem assays: 1829 (Project Summary), 1814 (Primary HTS)]; type: functional
[15] = Luminescence Cell-Based Dose Response to Identify Activators of 5'UTR Stem-Loop Driven Prion Protein mRNA Translation in H4-C Neuroglioblastoma Cells. [Related pubchem assays: 1829 (Project Summary), 1814 (Primary HTS)]; type: functional
[16] = Luminescence Cell-Based Dose Confirmation HTS to Identify Activators of 5'UTR Stem-Loop Driven Alpha-Synuclein mRNA Translation in H4 Neuroglioblastoma Cells. [Related pubchem assays: 1829 (Project Summary), 1814 (Primary HTS)]; type: functional
H4 = assay: Luminescence Cell-Based Dose Response HTS to Identify Activators of 5'UTR Stem-Loop Driven Prion Protein mRNA Translation in H4 Neuroglioblastoma Cells. [Related pubchem assays: 1829 (Project Summary), 1814 (Primary HTS)]; type: functional; settings: Homo sapiens
[17] = molecular target: Heat shock protein HSP 90-alpha (Homo sapiens, UniProt P07900); assay: Luminescence-based dose response biochemical high throughput screening assay for inhibitors of the Heat Shock Protein 90 (HSP90). [Related pubchem assays: 1831 (Summary AID.), 1846 (Confirmation screen.), 1789 (Primary screen.)]
Trypsin = Trypsin (Sus scrofa, UniProt P00761); assay: trypsin protease activity blockade – biochemical, quenched peptide fluorescence, cherry-pick, selectivity assay for Rce1 protease inhibitor project, dose response (AID 488789)
[18] = HIV-1 Vif–A3G interaction blockers – biochemical, TR-FRET, GST-Vif 1-94, biotin-A3G peptide, dose response retest, primary screen (AID 1117319); type: functional;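 note: TR-FRET signal of purified GST-Vif binding a biotinylated A3G peptide; inhibitors lower the FRET signal by blocking Vif and A3G binding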
CAAX prenyl protease 2 = molecular target: T2, CAAX prenyl protease 2 (Saccharomyces cerevisiae S288c, UniProt Q03530); type: biochemical
T2 sequence (Q03530 whole entry): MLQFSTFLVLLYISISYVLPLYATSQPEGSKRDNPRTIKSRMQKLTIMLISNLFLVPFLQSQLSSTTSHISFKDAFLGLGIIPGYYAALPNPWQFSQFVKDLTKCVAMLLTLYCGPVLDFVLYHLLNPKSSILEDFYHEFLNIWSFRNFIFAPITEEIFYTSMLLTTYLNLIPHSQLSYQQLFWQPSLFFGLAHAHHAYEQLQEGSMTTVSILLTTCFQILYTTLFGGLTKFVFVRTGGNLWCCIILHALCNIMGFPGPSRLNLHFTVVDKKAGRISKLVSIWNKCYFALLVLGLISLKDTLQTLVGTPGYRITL

CCOC(=O)N1CCc2c(sc(NC(=O)C3COc4ccccc4O3)c2C(N)=O)C1 (stereo not drawn)
IC50 [1]: 15.3 µM (not active) | IC50 [2]: > 111 µM (not active)

COc1cccc(OC(=O)c2sc3ccccc3c2Cl)c1
IC50 (NADPH oxidase 1): > 17 µM (not active)

COc1ccc(N2C(=O)CC(Nc3ccc(N4CCOCC4)cc3)C2=O)c(OC)c1 (stereo not drawn)
IC50 [3]: 174 µM (active) | IC50 (Protein Tat): 12.4 µM (inconclusive)

Cc1ccc2c(Cl)c(C(=O)Nc3cc(C)on3)sc2c1
IC50 [4]: 14.1 µM (not active) | IC50 [5]: 12.7 µM (not active)

O=C(Nc1cccc(-c2nc3cccnc3s2)c1)c1ccc(Cl)nc1
IC50 [4]: 1.8 µM (active) | IC50 [5]: 3.37 µM (active)

CN1CCc2c(sc3ncn4nc(-c5ccccc5O)nc4c23)C1
IC50 [6]: 17.9 µM (not active) | EC50 [7]: 10.4 µM (active) | EC50 [8]: 13.4 µM (active)

CC(=O)Nc1ccc(NC(=O)Cc2sc(-c3cccnc3)nc2-c2ccc(C)cc2)cc1
EC50 [9]: 1.28 µM (active) | IC50 [1]: > 5.47 µM (active) | IC50 [2]: > 111 µM (not active) | EC50 [10]: > 60 µM (not active)

O=C(O)CSCC(=O)Nc1ccc(-c2nc3ccccc3s2)cc1
IC50 [11]: 86.8 µM (active)

COc1ccc(-c2nc(-c3ccc(O)cc3)[nH]c2-c2ccc(OC)cc2)cc1
IC50 (NADPH oxidase 1): 9.01 µM (active)

Cc1ccc(C(=O)Nc2ccc(C(F)(F)F)n(C)c2=O)cc1
EC50 [12]: 0.305 µM (active) | EC50 [13]: 0.311 µM (active) | EC50 [14]: < 0.1 µM (inconclusive) | EC50 [15]: 0.317 µM (active)

O=C1c2ccccc2S(=O)(=O)N1CC1CC(c2ccc(Cl)cc2)=NO1 (stereo not drawn)
EC50 [12]: 0.407 µM (active) | EC50 [13]: 0.435 µM (active) | EC50 [14]: < 0.1 µM (active) | EC50 [15]: 0.805 µM (active) | EC50 [16]: < 0.1 µM (active) | EC50 (H4): 9.96 µM (active)

C=CCOC(=O)c1sc(NC(=O)c2ccc(OC)cc2)nc1C
IC50 [17]: 3.58 µM (active)

O=C(O)c1cc(-c2ccc(N3CCOCC3)cc2)nn1-c1ccc(F)cc1F
IC50 (Protein Tat): > 100 µM (active) | AC50 (Trypsin): 6.65 µM (active) | IC50 [18]: > 100 µM (active) | AC50 (CAAX prenyl protease 2): 13.5 µM (active)
